Measured values taken from patent US6353011B1, “1,2-dithiolane derivatives” (University of Mississippi, priority 1999, dated 2002).

Columns and labels:
[1] = Ulrich et al., U.S. Pat. No. 5,728,735; cited from earlier work
[2] = tested on: Human MDA-MB-23 1 breast cancer cells; test: MDA-MB-231 breast cancer cell proliferation (cell numbers); type: cell-based
Protocol: […]. […] Human MDA-MB-23 1 breast cancer cells were incubated with varying concentrations of either compound 86 or troglitazone and the effects on cell proliferation determined by measurement of cell numbers. […]. Compound 86 inhibits growth of human breast cancer cells.

Human keratinocytes [3] = test: Cell toxicity by lactate dehydrogenase release in keratinocyte culture; type: cell-based; conditions: highest concentration tested
3T3 L 1 fibroblasts [4] = test: 3T3 L1 differentiation into adipocytes (morphology, oil red O staining); type: cell-based; conditions: 3T3L1 cells
Protocol: (§1) This example illustrates the effects of compound 87 and troglitazone on proliferation of 3T3 L 1 fibroblasts and differentiation into adipocytes. 3T3L1 cells were incubated with varying concentrations of either compound 87 or troglitazone and the effects on cell proliferation determined by measurement of cell numbers. […] The compounds of the present invention are capable of preventing cell proliferation without inducing adipogenesis and represent useful agents for treatment and prevention of obesity.

PPAR gamma = molecular target: T1, PPAR gamma (Mus musculus, UniProt P37238); test: In vitro molecular assays of PPAR gamma activation
T1 sequence (P37238 1-505): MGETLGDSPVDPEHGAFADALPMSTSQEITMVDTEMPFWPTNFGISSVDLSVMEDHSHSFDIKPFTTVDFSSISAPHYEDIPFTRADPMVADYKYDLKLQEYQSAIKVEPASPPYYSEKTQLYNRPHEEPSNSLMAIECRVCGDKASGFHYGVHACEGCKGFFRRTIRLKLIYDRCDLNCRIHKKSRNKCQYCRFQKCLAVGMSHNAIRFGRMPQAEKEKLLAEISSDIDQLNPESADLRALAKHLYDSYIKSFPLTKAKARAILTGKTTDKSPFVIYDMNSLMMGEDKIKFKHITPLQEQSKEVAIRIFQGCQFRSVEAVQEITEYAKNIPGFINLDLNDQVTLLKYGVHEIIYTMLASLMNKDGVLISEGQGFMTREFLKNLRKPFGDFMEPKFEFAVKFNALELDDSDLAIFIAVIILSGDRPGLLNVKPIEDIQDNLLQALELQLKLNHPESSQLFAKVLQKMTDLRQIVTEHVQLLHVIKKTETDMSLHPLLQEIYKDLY

[5] = tested on: insulin resistant obese Zucker rats; test: Triglyceride levels in insulin resistant obese Zucker rats; type: in vivo, rat; conditions: oral 100 mg/kg/day for one week
Text: The drug was suspended in a mixture of 0.5% carboxymethylcellulose and administered by gavage.

[6] = tested on: Human HT-29 colon cancer cells; test: HT-29 colon cancer cell proliferation (cell numbers); type: cell-based
[7] = tested on: Human MCF-7 breast cancer cells; test: MCF-7 breast cancer cell proliferation (cell numbers); type: cell-based; conditions: MCF-7, varying concentrations
Human keratinocytes [8] = test: Human keratinocyte proliferation (cell numbers); type: cell-based; conditions: varying concentrations
3T3 L 1 fibroblasts [9] = test: 3T3 L1 fibroblast proliferation (cell numbers); type: cell-based; conditions: 3T3L1 cells
Protocol: as §1

[10] = tested on: insulin resistant obese Zucker rats; test: Serum insulin and glucose in insulin resistant obese Zucker rats; type: in vivo, rat; conditions: oral 100 mg/kg/day for one week, versus placebo controls
Text: The drug was suspended in a mixture of 0.5% carboxymethylcellulose and administered by gavage. […] After one week, blood samples were obtained for measurement of serum insulin levels by radioimmunoassay and serum glucose levels by glucose oxidase method. […] The effects of a higher dose of orally administered Rezulin® (troglitazone) on serum insulin and glucose levels in male obese Zucker rats as reported by Fujiwara et al., Diabetes 37.1549 are shown for comparison purposes.

Structure (SMILES): O=C(O)CCCC[C@@H]1CCSS1 [R-lipoic acid]
- anti-inflammatory activity, factor stronger than that of the racemate [1]: 10

Structure (SMILES): O=C(CCCCC1CCSS1)NCCOc1ccc(CC2SC(=O)NC2=O)cc1 (centres unmarked) [compound 86]
- potency in inhibiting malignant cell proliferation compared with troglitazone ([2]; MDA-MB-23 1): more potent than troglitazone
- cell proliferation (cell numbers) ([2]; MDA-MB-23 1, varying concentrations): dose dependent inhibition of cell proliferation

Structure (SMILES): Cc1c(C)c2c(c(C)c1O)CCC(C)(COc1ccc(CC3SC(=O)NC3=O)cc1)O2 (centres unmarked) [troglitazone, reference compound]
- cell toxicity (release of lactate dehydrogenase in the culture medium) (Human keratinocytes [3]): associated with cell toxicity

Structure (SMILES): CN(C(=O)CCCCC1CCSS1)c1ccc(CC2SC(=O)NC2=O)cc1 (centres unmarked) [compound 87]
- adipogenesis and conversion of the fibroblasts to adipocytes (3T3 L 1 fibroblasts [4]): but not compound 87 induced adipogenesis
- activation of PPAR gamma (PPAR gamma): did not activate PPAR gamma

Structure (SMILES): CN(CCOc1ccc(CC2SC(=O)NC2=O)cc1)C(=O)CCCCC1CCSS1 (centres unmarked) [compound 12]
- triglyceride levels [5]: potent ability to reduce triglyceride levels
- potency in inhibiting malignant cell proliferation compared with troglitazone ([6]; HT-29): more potent than troglitazone
- cell proliferation (cell numbers) ([6]; HT-29, varying concentrations): dose dependent inhibition of cell proliferation
- cell toxicity (release of lactate dehydrogenase in the culture medium) (Human keratinocytes [3]): without inducing cell toxicity
- cell proliferation (cell numbers) [7]: dose dependent inhibition of malignant cell proliferation
- adipogenesis and conversion of the fibroblasts to adipocytes (3T3 L 1 fibroblasts [4]): potent inducers of adipogenesis
- cell proliferation (cell numbers) (Human keratinocytes [8]): dose dependent inhibition of cell proliferation
- potency of inhibition of fibroblast proliferation compared with troglitazone (3T3 L 1 fibroblasts [9]): in a more potent fashion than troglitazone
- fibroblast proliferation (cell numbers) (3T3 L 1 fibroblasts [9]; varying concentrations): dose dependent inhibition of fibroblast proliferation
- serum glucose levels ([10]; glucose oxidase method): reductions in glucose levels
- serum insulin levels ([10]; radioimmunoassay): reductions in serum insulin levels
